Source: publication PMC6934184, “Selective DNA-PKcs inhibition extends the therapeutic index of localized radiotherapy and chemotherapy” (The Journal of Clinical Investigation, 2019)

Molecular target: T1, CSNK1G2 (CK1 gamma 2) (Homo sapiens, UniProt P78368)
T1 construct: purchased Thermo Fisher Scientific (Life Technologies) SelectScreen
Experiment: SelectScreen Z'LYTE
Type: biochemical
How it was run: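 NU5455 was profiled across the SelectScreen Broad panel of kinase activity and binding assays. Z'LYTE reactions such as CSF1R ran at apparent Km ATP, while the Adapta CAMK1 assay used ATP listed as 10. Values are given as percent.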

T1 sequence (P78368 whole entry): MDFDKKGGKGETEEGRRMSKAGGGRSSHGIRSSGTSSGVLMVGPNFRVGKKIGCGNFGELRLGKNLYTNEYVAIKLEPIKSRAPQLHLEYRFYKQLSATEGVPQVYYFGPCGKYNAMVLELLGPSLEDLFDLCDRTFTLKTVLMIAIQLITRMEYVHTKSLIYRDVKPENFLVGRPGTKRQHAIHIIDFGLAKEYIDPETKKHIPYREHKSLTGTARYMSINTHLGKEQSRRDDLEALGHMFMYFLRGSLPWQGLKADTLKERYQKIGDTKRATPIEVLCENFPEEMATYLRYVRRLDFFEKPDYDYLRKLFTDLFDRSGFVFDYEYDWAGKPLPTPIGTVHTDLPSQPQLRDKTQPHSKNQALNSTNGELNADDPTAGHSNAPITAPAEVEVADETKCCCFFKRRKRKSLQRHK

## CN(C(=O)CN1CCOCC1)c1ccc2sc3c(-c4cccc5c(=O)cc(N6CC7CCC(C6)O7)oc45)cccc3c2c1 [NU5455]
  inhibition at 1 µM: -9.3%
